Results on seven molecules are retold here after PMC12136037, “Type II kinase inhibitors that target Parkinson’s disease–associated LRRK2” (Science Advances, 2025).

What all share (assay): DSF 100 kinase selectivity screen;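 further: compound tested at 20 µM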
Common to all, as to assay type: binding

The target in test [1] is T1, ~100 representative kinases (Homo sapiens, UniProt P45984).
T1 construct: Recombinant protein kinase domains with a concentration of 2 μM
The note with it: protein MAPK9; average of three replicates. The procedure: (§1) Recombinant protein kinase domains with a concentration of 2 μM were mixed with a 20 μM compound solution in dimethyl sulfoxide (DMSO), 20 mM Hepes (pH 7.5), and 500 mM NaCl. SYPRO Orange (5000×, Invitrogen) was added as a fluorescence probe (1μl/ml). Subsequently, temperature-dependent protein unfolding profiles were measured using the QuantStudio 5 realtime PCR machine (Thermo Fisher Scientific, Waltham, MA, USA). […] The temperature was raised with a step rate of 3°C/min. […] Differences in melting temperature are given as ΔTm values in degrees Celsius. […]

In test [2] the target is T2, ~100 representative kinases (Homo sapiens, UniProt O94768).
T2 construct: Recombinant protein kinase domains with a concentration of 2 μM
T2 sequence (O94768 1-372): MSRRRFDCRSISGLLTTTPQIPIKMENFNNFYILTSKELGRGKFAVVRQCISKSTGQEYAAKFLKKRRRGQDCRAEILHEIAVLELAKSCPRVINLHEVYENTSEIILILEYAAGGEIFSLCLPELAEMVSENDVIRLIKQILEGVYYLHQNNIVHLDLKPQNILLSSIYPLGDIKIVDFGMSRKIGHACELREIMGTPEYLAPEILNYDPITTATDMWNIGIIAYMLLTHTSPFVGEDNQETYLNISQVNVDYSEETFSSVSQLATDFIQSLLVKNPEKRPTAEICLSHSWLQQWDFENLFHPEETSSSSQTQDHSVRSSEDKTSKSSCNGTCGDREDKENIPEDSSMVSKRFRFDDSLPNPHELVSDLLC
The note with it: Protein STK17B; DSF; average of three replicates. Here is the method: as §1

Test [3] has as its target T3, ~100 representative kinases (Homo sapiens, UniProt O96017).
T3 construct: Recombinant protein kinase domains with a concentration of 2 μM
The note with it: Protein CHEK2; average of three replicates. The procedure: as §1

In test [4] the target is T4, ~100 representative kinases (Homo sapiens, UniProt O43293).
T4 construct: Recombinant protein kinase domains with a concentration of 2 μM
T4 sequence (O43293 whole entry, the tested form may be a part): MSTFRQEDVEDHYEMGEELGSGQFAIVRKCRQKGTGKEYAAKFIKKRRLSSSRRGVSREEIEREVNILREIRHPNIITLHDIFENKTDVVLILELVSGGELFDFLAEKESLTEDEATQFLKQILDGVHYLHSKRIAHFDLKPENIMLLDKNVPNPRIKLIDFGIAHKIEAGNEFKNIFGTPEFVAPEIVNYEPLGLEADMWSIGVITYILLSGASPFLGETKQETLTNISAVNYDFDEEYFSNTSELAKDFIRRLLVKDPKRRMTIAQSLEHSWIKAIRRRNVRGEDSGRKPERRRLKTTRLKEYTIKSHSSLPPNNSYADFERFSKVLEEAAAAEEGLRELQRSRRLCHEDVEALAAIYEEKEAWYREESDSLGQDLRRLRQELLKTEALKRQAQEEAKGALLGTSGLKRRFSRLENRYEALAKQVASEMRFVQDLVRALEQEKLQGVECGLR
The following applies: Protein DAPK3; average of three replicates. Here is the method:
as §1

The target in test [5] is T5, ~100 representative kinases (Homo sapiens, UniProt Q86V86).
T5 construct: Recombinant protein kinase domains with a concentration of 2 μM
The note with it: protein PIM3; average of three replicates. The procedure:
as §1

Test [6] concerns the target T6, ~100 representative kinases (Homo sapiens, UniProt Q13557).
T6 construct: Recombinant protein kinase domains with a concentration of 2 μM
The note with it: Protein CAMK2D; average of three replicates. The procedure:
as §1

Test [7] deals with T7, ~100 representative kinases (Homo sapiens, UniProt P19784).
T7 construct: Recombinant protein kinase domains with a concentration of 2 μM
The note with it: Protein CK2A2; average of three replicates. The procedure: as §1

The target of test [8] is T8, ~100 representative kinases (Homo sapiens, UniProt P53779).
T8 construct: Recombinant protein kinase domains with a concentration of 2 μM
The note with it: protein MAPK10; average of three replicates. Here is the method: as §1

For test [9], the target named is T9, ~100 representative kinases (Homo sapiens, UniProt Q14680).
T9 construct: Recombinant protein kinase domains with a concentration of 2 μM
The note with it: protein MELK; average of three replicates. The procedure: as §1

Test [10] deals with T10, ~100 representative kinases (Homo sapiens, UniProt O15075).
T10 construct: Recombinant protein kinase domains with a concentration of 2 μM
T10 sequence (O15075 whole entry, the tested form may be a part): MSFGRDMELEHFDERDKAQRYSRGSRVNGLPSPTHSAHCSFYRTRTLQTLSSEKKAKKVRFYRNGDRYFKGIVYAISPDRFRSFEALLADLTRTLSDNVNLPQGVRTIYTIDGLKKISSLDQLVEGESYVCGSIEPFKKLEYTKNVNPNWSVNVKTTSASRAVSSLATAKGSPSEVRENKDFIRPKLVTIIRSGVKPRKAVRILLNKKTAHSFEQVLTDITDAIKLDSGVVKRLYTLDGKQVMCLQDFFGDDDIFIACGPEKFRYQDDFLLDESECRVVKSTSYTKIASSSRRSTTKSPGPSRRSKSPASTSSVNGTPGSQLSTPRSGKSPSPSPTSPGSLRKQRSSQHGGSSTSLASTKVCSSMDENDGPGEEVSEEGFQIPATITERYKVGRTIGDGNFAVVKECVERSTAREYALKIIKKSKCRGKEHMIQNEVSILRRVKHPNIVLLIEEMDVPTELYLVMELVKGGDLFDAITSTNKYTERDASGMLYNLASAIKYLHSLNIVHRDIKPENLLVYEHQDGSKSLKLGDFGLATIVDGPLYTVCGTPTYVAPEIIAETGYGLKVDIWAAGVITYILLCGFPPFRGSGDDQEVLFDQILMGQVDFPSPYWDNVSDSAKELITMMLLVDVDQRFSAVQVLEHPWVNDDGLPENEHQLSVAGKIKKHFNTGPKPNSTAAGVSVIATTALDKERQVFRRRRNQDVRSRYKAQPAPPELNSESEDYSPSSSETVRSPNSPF
The following applies: Protein DCAMKL1; average of three replicates. Here is the method:
as §1

Test [11] concerns the target T11, ~100 representative kinases (Homo sapiens, UniProt Q2M2I8).
T11 construct: Recombinant protein kinase domains with a concentration of 2 μM
The note with it: Protein AAK1; average of three replicates. The procedure:
as §1

Test [12] has as its target T12, ~100 representative kinases (Homo sapiens, UniProt Q13043).
T12 construct: Recombinant protein kinase domains with a concentration of 2 μM
T12 sequence (Q13043 1-487): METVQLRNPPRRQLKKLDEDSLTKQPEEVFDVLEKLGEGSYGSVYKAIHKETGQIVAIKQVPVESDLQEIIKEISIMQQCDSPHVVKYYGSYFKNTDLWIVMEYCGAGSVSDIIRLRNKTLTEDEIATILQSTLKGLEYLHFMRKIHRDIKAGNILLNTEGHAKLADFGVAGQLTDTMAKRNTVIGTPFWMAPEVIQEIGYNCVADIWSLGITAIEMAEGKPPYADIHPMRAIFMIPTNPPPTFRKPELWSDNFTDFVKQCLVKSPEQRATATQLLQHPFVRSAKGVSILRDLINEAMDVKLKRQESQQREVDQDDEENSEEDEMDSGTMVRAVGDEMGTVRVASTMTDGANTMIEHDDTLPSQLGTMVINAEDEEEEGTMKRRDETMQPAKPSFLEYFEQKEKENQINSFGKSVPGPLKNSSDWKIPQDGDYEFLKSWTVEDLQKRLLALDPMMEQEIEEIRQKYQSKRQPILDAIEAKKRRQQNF
The note with it: Protein STK4; DSF; average of three replicates. Here is the method: as §1

Test [13] has as its target T13, ~100 representative kinases (Homo sapiens, UniProt O94804).
T13 construct: Recombinant protein kinase domains with a concentration of 2 μM
The note with it: Protein STK10; DSF; average of three replicates. Here is the method:
as §1

The target in test [14] is T14, ~100 representative kinases (Homo sapiens, UniProt Q15418).
T14 construct: Recombinant protein kinase domains with a concentration of 2 μM
The note with it: Protein RPS6KA1; DSF; average of three replicates. The procedure: as §1

Test [15] deals with T15, ~100 representative kinases (Homo sapiens, UniProt Q8TF76).
T15 construct: Recombinant protein kinase domains with a concentration of 2 μM
T15 sequence (Q8TF76 1-798): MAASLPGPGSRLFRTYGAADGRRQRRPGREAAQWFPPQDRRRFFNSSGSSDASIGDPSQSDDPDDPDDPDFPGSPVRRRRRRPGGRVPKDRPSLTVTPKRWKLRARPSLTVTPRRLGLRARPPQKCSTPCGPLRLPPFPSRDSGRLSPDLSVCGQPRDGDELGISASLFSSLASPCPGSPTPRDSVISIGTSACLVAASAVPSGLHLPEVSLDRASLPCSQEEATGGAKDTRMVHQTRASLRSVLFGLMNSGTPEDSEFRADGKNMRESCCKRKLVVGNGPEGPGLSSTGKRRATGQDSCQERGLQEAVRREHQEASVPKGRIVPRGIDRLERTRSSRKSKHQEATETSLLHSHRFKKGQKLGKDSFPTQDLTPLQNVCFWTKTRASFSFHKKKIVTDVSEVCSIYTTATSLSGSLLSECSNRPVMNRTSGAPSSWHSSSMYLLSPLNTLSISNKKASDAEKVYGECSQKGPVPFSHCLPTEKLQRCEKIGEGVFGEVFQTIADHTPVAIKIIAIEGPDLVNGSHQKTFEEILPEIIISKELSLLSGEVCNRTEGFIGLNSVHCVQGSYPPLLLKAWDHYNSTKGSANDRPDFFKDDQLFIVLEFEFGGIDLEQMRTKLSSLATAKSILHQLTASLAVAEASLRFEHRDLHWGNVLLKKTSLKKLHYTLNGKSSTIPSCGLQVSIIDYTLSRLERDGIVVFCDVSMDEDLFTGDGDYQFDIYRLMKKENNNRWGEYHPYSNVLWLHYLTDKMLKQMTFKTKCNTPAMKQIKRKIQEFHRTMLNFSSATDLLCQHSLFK
The following applies: protein GSG2; average of three replicates. The procedure: as §1

T3 sequence (O96017 whole entry, the tested form may be a part): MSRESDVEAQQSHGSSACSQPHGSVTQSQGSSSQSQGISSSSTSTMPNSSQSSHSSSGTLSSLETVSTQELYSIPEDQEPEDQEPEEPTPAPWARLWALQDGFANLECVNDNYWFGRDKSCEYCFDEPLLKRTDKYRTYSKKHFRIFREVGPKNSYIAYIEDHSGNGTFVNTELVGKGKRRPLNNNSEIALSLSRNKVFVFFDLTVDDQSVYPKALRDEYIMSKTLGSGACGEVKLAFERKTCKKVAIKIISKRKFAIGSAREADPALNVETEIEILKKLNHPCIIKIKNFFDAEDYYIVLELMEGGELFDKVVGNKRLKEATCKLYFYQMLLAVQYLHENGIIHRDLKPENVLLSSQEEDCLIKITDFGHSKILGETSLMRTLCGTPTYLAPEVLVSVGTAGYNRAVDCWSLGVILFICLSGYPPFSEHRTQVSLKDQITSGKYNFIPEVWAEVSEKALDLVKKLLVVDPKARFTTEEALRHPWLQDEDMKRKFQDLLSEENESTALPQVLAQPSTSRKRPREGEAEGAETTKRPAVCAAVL
T13 sequence (O94804 whole entry, the tested form may be a part): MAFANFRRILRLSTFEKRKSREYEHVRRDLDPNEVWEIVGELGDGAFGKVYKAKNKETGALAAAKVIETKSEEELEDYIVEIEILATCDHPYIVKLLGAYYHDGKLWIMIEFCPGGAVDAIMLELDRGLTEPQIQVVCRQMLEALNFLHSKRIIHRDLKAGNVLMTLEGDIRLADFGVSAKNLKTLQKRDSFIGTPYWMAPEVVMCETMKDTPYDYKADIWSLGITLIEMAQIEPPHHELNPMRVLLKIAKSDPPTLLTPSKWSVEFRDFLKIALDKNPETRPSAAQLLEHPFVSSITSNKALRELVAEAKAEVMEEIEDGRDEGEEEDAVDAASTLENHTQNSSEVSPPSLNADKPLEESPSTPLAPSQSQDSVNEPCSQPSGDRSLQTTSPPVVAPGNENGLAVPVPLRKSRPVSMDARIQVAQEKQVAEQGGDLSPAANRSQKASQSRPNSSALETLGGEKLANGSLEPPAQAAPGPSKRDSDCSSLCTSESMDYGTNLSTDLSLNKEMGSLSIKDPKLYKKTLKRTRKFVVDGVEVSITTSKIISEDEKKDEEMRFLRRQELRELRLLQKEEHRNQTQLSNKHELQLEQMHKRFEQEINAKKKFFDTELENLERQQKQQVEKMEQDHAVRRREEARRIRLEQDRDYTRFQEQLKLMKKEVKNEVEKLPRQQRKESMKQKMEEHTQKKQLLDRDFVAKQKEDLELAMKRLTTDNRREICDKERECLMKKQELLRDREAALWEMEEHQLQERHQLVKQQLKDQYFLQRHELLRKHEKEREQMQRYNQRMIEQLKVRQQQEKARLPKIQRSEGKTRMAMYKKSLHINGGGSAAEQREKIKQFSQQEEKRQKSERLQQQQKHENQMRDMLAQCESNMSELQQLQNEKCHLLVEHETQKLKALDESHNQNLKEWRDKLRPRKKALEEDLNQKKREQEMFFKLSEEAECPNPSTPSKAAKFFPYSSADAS
T11 sequence (Q2M2I8 whole entry, the tested form may be a part): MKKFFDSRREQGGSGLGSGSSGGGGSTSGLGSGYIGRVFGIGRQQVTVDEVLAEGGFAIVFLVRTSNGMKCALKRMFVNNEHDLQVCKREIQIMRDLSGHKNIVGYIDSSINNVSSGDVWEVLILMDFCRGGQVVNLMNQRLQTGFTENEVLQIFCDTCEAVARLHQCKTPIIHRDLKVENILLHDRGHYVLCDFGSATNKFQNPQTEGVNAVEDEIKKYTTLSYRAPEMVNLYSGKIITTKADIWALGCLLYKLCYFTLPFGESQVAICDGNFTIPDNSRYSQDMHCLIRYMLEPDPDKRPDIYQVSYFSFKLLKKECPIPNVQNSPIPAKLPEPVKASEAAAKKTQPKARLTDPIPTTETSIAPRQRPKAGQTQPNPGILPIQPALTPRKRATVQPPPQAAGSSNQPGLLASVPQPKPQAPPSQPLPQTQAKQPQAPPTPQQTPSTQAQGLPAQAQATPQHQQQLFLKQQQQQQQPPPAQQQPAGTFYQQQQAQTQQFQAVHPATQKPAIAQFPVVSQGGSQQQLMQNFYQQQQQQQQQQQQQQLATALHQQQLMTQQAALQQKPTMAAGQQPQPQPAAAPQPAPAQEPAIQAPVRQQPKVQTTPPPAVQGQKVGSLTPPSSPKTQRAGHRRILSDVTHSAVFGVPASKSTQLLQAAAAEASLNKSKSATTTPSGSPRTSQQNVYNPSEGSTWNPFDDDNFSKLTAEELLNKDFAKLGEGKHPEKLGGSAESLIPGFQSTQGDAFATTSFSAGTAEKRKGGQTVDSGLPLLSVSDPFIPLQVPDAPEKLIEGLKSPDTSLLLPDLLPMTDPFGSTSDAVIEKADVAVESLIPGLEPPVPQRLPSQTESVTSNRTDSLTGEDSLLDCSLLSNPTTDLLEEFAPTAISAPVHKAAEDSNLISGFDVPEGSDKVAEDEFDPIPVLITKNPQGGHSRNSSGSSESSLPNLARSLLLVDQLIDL
T1 sequence (P45984 whole entry, the tested form may be a part): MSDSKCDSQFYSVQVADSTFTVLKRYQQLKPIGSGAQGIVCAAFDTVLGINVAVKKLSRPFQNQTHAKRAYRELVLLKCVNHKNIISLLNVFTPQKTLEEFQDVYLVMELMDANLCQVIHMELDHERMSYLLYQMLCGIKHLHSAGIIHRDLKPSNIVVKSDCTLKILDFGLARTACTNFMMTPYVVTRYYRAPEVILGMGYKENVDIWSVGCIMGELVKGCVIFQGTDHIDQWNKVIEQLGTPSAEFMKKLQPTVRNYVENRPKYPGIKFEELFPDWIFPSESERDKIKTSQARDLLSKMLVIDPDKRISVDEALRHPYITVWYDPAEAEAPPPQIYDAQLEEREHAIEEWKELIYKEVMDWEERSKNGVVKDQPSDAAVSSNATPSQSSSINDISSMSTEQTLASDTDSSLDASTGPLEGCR
T6 sequence (Q13557 whole entry, the tested form may be a part): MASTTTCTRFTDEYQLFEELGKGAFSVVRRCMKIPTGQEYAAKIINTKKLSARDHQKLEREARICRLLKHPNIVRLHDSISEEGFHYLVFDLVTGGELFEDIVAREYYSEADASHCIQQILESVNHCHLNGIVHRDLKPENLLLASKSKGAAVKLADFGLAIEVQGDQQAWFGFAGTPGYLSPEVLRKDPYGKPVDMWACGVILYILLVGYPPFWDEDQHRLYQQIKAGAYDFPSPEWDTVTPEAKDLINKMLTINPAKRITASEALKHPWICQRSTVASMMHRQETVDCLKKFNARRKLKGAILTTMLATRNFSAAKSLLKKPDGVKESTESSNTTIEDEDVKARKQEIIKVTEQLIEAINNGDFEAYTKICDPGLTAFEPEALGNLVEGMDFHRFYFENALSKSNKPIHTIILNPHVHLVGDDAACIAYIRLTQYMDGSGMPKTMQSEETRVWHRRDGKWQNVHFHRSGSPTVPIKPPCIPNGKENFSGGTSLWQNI

`O=C(Nc1cccc(-c2c[nH]c3ncnc(N4CCOCC4)c23)c1)C1(C(=O)Nc2ccc(F)c(F)c2)CC1` [Compound 17]: the dTm in test [1] amounted to 2.95 K; in test [2] it was 6.96 K; in test [3] it was 4.07 K; in [4], 8.69 K; in test [5], 1.09 K; in test [6], 0.36 K. The dTm in [7] was 8.40 K; in [8], 1.84 K; in [9] it was 14.46 K; in test [10], 1.90 K; in test [11] it was 3.45 K; in [12], 5.12 K. Also, the figures for the dTm in test [13], in test [14] and in test [15] were 13.86 K, 0.38 K and -3.87 K, respectively.
On to `O=C(Nc1cccc(-c2c[nH]c3ncnc(N4CCOCC4)c23)c1)C1(C(=O)Nc2ccc(F)c(Cl)c2)CC1` [Compound 18], for which the dTm in test [1] is listed as 5.44 K; in test [2], 9.48 K; in [3], 5.34 K; in test [4] it was 10.62 K; in [5] it was 1.00 K; in test [6], 0.66 K. The dTm in test [7] worked out at 1.36 K; in [8] it was 3.57 K; in [9], 13.04 K; in [10] it was 2.36 K; in [11] it was 4.45 K; in test [12], 6.48 K. The dTm in [13] is recorded as 15.34 K; in [14], 0.70 K; in test [15] it was -3.25 K.
On to `O=C(Nc1cccc(-c2c[nH]c3ncnc(N4CCOCC4)c23)c1)C1(C(=O)Nc2ccc(F)c(Br)c2)CC1` [Compound 19], for which the dTm in test [1] is 5.82 K; in [2], 0.00 K; in [3], 3.80 K; in test [4], 8.34 K; in test [5] it was -0.34 K; in test [6], 1.25 K. In addition, the dTm in [7] is 7.91 K; in [8], 4.40 K; in test [9] it was 17.38 K; in [10] it was 4.80 K; in [11], 3.23 K; in test [12] it was 0.00 K. For the same molecule, the dTm in test [13] is reported as 16.12 K; in test [14], 0.26 K; in test [15], -2.45 K.
With `Cc1cc(NC(=O)C2(C(=O)Nc3cccc(-c4c[nH]c5ncnc(N6CCOCC6)c45)c3)CC2)ccc1F` [Compound 20], the dTm in test [1] was 6.61 K; in [2] it was 10.15 K; in [3] it was 5.31 K; in test [4], 10.09 K; in test [5], 1.71 K; in test [6] it was 0.24 K. In addition, the dTm is 1.33 K in test [7]; 0.56 K in test [8]; 17.51 K in test [9]; 2.29 K in test [10]; 5.13 K in test [11]; 7.44 K in test [12]. Also, the dTm is on record as 16.12 K in test [13], 0.33 K in test [14] and -3.30 K in test [15].
Take `COc1cc(NC(=O)C2(C(=O)Nc3cccc(-c4c[nH]c5ncnc(N6CCOCC6)c45)c3)CC2)ccc1F` [Compound 21]: the dTm is recorded as 3.60 K in test [1]; 8.47 K in test [2]; 4.32 K in test [3]; 7.62 K in [4]; -0.0363 K in [5]; -0.00539 K in [6]. The dTm in test [7] is on record as 3.16 K; in test [8], 0.29 K; in test [9] it was 16.69 K; in [10], 1.25 K; in test [11], 4.69 K; in [12] it was 3.89 K. Further, the dTm in [13] is on record as 12.16 K; in test [14] it was 0.11 K; in test [15], -2.20 K.
For the molecule `CC(C)(C)c1cccc(NC(=O)C2(C(=O)Nc3cccc(-c4c[nH]c5ncnc(N6CCOCC6)c45)c3)CC2)c1` [Compound 22], the dTm in test [1] is on record as 1.21 K; in [2], 0.00 K; in test [3], 3.64 K; in test [4] it was 3.52 K; in test [5], -1.29 K; in [6], 0.84 K. The dTm was 2.45 K in test [7]; 1.37 K in [8]; 17.31 K in [9]; 3.75 K in [10]; -0.91 K in test [11]; 5.49 K in test [12]. For the same molecule, the dTm in test [13] is 15.18 K; in [14] it was -0.38 K; in [15] it was -2.85 K.
Regarding `O=C(Nc1cccc(-c2c[nH]c3ncnc(N4CCOCC4)c23)c1)C1(C(=O)Nc2ccc(F)cc2F)CC1` [Compound 23], the dTm was 2.02 K in [1]; 3.82 K in test [2]; 3.32 K in test [3]; 3.66 K in [4]; -0.33 K in test [5]; 0.16 K in test [6]. Besides, the dTm in test [7] is 1.02 K; in test [8], -0.75 K; in test [9] it was 13.56 K; in test [10], -0.73 K; in [11], 2.93 K; in test [12], 4.75 K. Moreover, the dTm is 9.26 K in [13], 0.27 K in test [14] and -2.84 K in test [15].
